Data as given in the NIST ThermoML archive (doi:10.1021/acs.jced.8b00438).

Columns and labels:
[1] = 100 kPa, Liquid; for viscosity: Falling or rolling sphere viscometry; for mass density: Vibrating tube method
[2] = xn = mol fraction of the nth substance listed; conditions: 100 kPa, Liquid; for viscosity: Falling or rolling sphere viscometry; for mass density: Vibrating tube method

C1CCC(C2CCCCC2)CC1 [1,1'-bicyclohexyl]
[1]
Conditions	mass density [kg/m3]	viscosity [mPa·s]
293.15 K	886.05	4.003
298.15 K	882.44	3.53
303.15 K	878.84	3.137
308.15 K	875.25	2.81
313.15 K	871.66	2.532
318.15 K	868.08	2.296
323.15 K	864.5	2.092
328.15 K	860.93	1.915
333.15 K	857.35	1.762

CCCCO [butan-1-ol] + CCCCCCCCCCCC
[2], x2 = 0
Conditions	mass density [kg/m3]	viscosity [mPa·s]
293.15 K	809.5	2.941
298.15 K	805.7	2.58
303.15 K	801.87	2.274
308.15 K	798	2.012
313.15 K	794.1	1.787
318.15 K	790.15	1.593
323.15 K	786.16	1.426
328.15 K	782.12	1.28
333.15 K	778.01	1.152

CCCCO [butan-1-ol]
[1]
Conditions	mass density [kg/m3]	viscosity [mPa·s]
293.15 K	809.5	2.941
298.15 K	805.7	2.58
303.15 K	801.87	2.274
308.15 K	798	2.012
313.15 K	794.1	1.787
318.15 K	790.15	1.593
323.15 K	786.16	1.426
328.15 K	782.12	1.28
333.15 K	778.01	1.152

CCCCCCCCCCCC [dodecane] + C1CCC(C2CCCCC2)CC1
[2], x1 = 1
Conditions	mass density [kg/m3]	viscosity [mPa·s]
293.15 K	748.83	1.491
298.15 K	745.22	1.366
303.15 K	741.59	1.257
308.15 K	737.95	1.154
313.15 K	734.31	1.076
318.15 K	730.66	1.003
323.15 K	727	0.936
328.15 K	723.33	0.877
333.15 K	719.65	0.823

CCCCCCCCCCCC [dodecane]
[1]
Conditions	mass density [kg/m3]	viscosity [mPa·s]
293.15 K	748.83	1.491
298.15 K	745.22	1.366
303.15 K	741.59	1.257
308.15 K	737.95	1.154
313.15 K	734.31	1.076
318.15 K	730.66	1.003
323.15 K	727	0.936
328.15 K	723.33	0.877
333.15 K	719.65	0.823

CCCCO [butan-1-ol] + C1CCC(C2CCCCC2)CC1
[2], x2 = 0
Conditions	mass density [kg/m3]	viscosity [mPa·s]
293.15 K	809.5	2.941
298.15 K	805.7	2.58
303.15 K	801.87	2.274
308.15 K	798	2.012
313.15 K	794.1	1.787
318.15 K	790.15	1.593
323.15 K	786.16	1.426
328.15 K	782.12	1.28
333.15 K	778.01	1.152
